Source: ChEMBL document CHEMBL4002640, “Discovery of MK-1832, a Kv1.5 inhibitor with improved selectivity and pharmacokinetics” (Bioorg Med Chem Lett, 2017)
Calls of active or inactive are those of the source.

Tests used:
[1] = biological target: T1, Voltage-gated inwardly rectifying potassium channel KCNH2 (Homo sapiens, UniProt Q12809); assay: Displacement of [3H]-MK499 from human ERG IKr channel expressed in HEK293 cell membranes
[2] = Clearance in dog; format: ADME, Canis lupus familiaris; details: in vivo
[3] = organism: Homo sapiens; assay: Substrate activity at human P-gp assessed as efflux ratio
[4] = tested on: Canis familiaris; assay: Toxicity in anesthetized Mongrel dog assessed as effect on heart rate at 0.3 to 100 ug/kg/min, iv administered as 60 mins infusion measured up to 60 mins by electrophysiology method; format: organism-based, Canis lupus familiaris; details: in vivo, 1 h
[5] = tested on: Canis familiaris; assay: Anti-atrial fibrillation activity in anesthetized Mongrel dog assessed as increase in atrial refractory period at 400 ms of basic cycle length at 0.3 to 100 ug/kg/min, iv administered as 60 mins infusion measured up to 60 mins by electrophysiology method; format: functional, organism-based; details: Canis lupus familiaris
[6] = biological target: Sodium channel protein type 5 subunit alpha (Homo sapiens, UniProt Q14524); assay: Inhibition of SCN5a (unknown origin) assessed as reduction in sodium current at 10 uM by voltage/ion probe reader method
[7] = Selectivity index, ratio of IC50 for human KCNQ1/KCNE1 IKs channel expressed in HEK293 cells to IC50 for Kv1.5 IKur channel in human atrial myocytes
[8] = Oral bioavailability in rhesus monkey; format: ADME, organism-based, Macaca mulatta; details: in vivo
[9] = tested on: Canis familiaris; assay: Anti-atrial fibrillation activity in iv dosed anesthetized Mongrel dog assessed as increase in atrial refractory period at 400 ms of basic cycle length administered as 60 mins infusion measured up to 60 mins by electrophysiology method; format: functional, Canis lupus familiaris
[10] = Oral bioavailability in dog; format: ADME, organism-based, Canis lupus familiaris; details: in vivo
[11] = tested on: Canis familiaris; assay: Toxicity in anesthetized Mongrel dog assessed as effect on ventricular refractory period at 0.3 to 100 ug/kg/min, iv administered as 60 mins infusion measured up to 60 mins by electrophysiology method; format: organism-based, Canis lupus familiaris; details: in vivo, 1 h
[12] = Protein binding in rat plasma; format: ADME, cell-free; details: read-out: PPB (converted)
[13] = Terminal half-life in rhesus monkey; format: ADME, Macaca mulatta; details: in vivo, read-out: beta t1/2 (converted)
[14] = biological target: T2, Potassium voltage-gated channel subfamily A member 5 (Homo sapiens, UniProt P22460); assay: Inhibition of Kv1.5 mediated ultra-rapid delayed rectifier current Ikur in human atrial myocytes by voltage-patch clamp electrophysiology method; format: cell-based
[15] = Oral bioavailability in rat; format: ADME, organism-based; details: in vivo
[16] = biological target: T2, Potassium voltage-gated channel subfamily A member 5; assay: Inhibition of Kv1.5 (unknown origin)
[17] = Terminal half-life in dog; format: ADME, Canis lupus familiaris; details: in vivo, read-out: beta t1/2 (converted)
[18] = Clearance in rhesus monkey; format: ADME, Macaca mulatta; details: in vivo
[19] = Clearance in rat; format: ADME; details: in vivo
[20] = Metabolic stability in human hepatocytes up to 3 hrs by mass spectrometry; format: ADME, cell-based, Hepatocyte
[21] = tested on: Canis familiaris; assay: Toxicity in anesthetized Mongrel dog assessed as effect on QRS interval at 0.3 to 100 ug/kg/min, iv administered as 60 mins infusion measured up to 60 mins by electrophysiology method; format: organism-based, Canis lupus familiaris; details: in vivo, 1 h
[22] = Volume of distribution at steady state in dog; format: ADME, Canis lupus familiaris; details: in vivo, read-out: Vdss
[23] = tested on: Canis familiaris; assay: Selectivity index, ratio of compound effect for anti-atrial fibrillation activity in iv dosed anesthetized Mongrel dog assessed as increase in atrial refractory period to compound effect on ventricular refractory period in iv dosed anesthetized Mongrel dog; set-up: species or system Canis lupus familiaris
[24] = tested on: Canis familiaris; assay: Toxicity in anesthetized Mongrel dog assessed as effect on QTc interval at 0.3 to 100 ug/kg/min, iv administered as 60 mins infusion measured up to 60 mins by electrophysiology method; format: organism-based, Canis lupus familiaris; details: in vivo, 1 h
[25] = tested on: Canis familiaris; assay: Effect on ventricular refractory period in iv dosed anesthetized Mongrel dog assessed as threshold change in ventricular refractory period at 400 ms of basic cycle length administered as 60 mins infusion measured up to 60 mins by electrophysiology method; format: ADME, organism-based, Canis lupus familiaris; details: in vivo, 1 h
[26] = Protein binding in dog plasma; format: ADME, cell-free, Canis lupus familiaris; details: read-out: PPB (converted)
[27] = biological target: T3, KCNQ1/KCNE1 (IKs) (Homo sapiens, UniProt P15382+P51787); assay: Inhibition of human KCNQ1/KCNE1 expressed in HEK293 cells assessed as reduction in slowly activating delayed rectifier cardiac potassium current at 30 uM by patch clamp electrophysiology method; format: cell-based; details: HEK293 cells expressing human KCNQ1/KCNE1
[28] = Terminal half-life in rat; format: ADME; details: in vivo, read-out: beta t1/2 (converted)
[29] = tested on: Canis familiaris; assay: Toxicity in anesthetized Mongrel dog assessed as effect on ECG at 0.3 to 100 ug/kg/min, iv administered as 60 mins infusion measured up to 60 mins by electrophysiology method; format: organism-based, Canis lupus familiaris; details: in vivo, 1 h
[30] = Volume of distribution at steady state in rhesus monkey; format: ADME, Macaca mulatta; details: in vivo, read-out: Vdss
[31] = Volume of distribution at steady state in rat; format: ADME; details: in vivo, read-out: Vdss
[32] = biological target: T1, Voltage-gated inwardly rectifying potassium channel KCNH2; assay: Inhibition of human ERG expressed in CHOK1 cells assessed as reduction in rapidly activating delayed rectifier cardiac potassium current by whole-cell voltage-patch clamp assay; format: cell-based
[33] = Protein binding in rhesus monkey plasma; format: ADME, cell-free, Macaca mulatta; details: read-out: PPB (converted)
[34] = biological target: T4, A-type voltage-gated potassium channel KCND3 (Homo sapiens, UniProt Q9UK17); assay: Inhibition of Kv4.3 (unknown origin) assessed as reduction in transient outward potassium current by high throughput clamp method
T4 sequence (Q9UK17 whole entry): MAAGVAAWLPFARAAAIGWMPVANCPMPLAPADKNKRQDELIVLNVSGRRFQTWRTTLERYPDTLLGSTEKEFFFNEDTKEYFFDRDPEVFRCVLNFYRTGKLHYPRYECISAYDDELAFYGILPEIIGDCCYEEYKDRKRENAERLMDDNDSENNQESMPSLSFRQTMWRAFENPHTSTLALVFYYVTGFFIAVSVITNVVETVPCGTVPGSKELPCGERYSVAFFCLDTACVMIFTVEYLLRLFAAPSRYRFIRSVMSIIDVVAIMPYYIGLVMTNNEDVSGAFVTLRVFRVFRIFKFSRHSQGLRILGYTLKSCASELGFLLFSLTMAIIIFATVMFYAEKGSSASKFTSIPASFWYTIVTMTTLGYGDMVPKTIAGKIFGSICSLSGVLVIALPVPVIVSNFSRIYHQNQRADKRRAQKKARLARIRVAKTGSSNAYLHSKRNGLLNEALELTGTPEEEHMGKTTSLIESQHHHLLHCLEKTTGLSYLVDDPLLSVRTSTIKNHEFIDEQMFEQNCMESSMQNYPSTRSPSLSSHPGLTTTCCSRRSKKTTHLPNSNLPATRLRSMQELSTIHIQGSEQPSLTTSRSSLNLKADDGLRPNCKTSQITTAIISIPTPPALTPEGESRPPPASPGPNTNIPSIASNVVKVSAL

[35] = tested on: Canis familiaris; assay: Toxicity in anesthetized Mongrel dog assessed as effect on mean arterial pressure at 0.3 to 100 ug/kg/min, iv administered as 60 mins infusion measured up to 60 mins by electrophysiology method; format: organism-based, Canis lupus familiaris; details: in vivo, 1 h
[36] = tested on: Canis familiaris; assay: Toxicity in anesthetized Mongrel dog assessed as effect on PR interval at 0.3 to 100 ug/kg/min, iv administered as 60 mins infusion measured up to 60 mins by electrophysiology method; format: organism-based, Canis lupus familiaris; details: in vivo, 1 h
[37] = biological target: T3, KCNQ1/KCNE1 (IKs); assay: Inhibition of human KCNQ1/KCNE1 expressed in HEK293 cells assessed as reduction in slowly activating delayed rectifier cardiac potassium current at 10 uM by patch clamp electrophysiology method; format: cell-based; details: HEK293 cells expressing human KCNQ1/KCNE1

T3 sequence (P51787 whole entry): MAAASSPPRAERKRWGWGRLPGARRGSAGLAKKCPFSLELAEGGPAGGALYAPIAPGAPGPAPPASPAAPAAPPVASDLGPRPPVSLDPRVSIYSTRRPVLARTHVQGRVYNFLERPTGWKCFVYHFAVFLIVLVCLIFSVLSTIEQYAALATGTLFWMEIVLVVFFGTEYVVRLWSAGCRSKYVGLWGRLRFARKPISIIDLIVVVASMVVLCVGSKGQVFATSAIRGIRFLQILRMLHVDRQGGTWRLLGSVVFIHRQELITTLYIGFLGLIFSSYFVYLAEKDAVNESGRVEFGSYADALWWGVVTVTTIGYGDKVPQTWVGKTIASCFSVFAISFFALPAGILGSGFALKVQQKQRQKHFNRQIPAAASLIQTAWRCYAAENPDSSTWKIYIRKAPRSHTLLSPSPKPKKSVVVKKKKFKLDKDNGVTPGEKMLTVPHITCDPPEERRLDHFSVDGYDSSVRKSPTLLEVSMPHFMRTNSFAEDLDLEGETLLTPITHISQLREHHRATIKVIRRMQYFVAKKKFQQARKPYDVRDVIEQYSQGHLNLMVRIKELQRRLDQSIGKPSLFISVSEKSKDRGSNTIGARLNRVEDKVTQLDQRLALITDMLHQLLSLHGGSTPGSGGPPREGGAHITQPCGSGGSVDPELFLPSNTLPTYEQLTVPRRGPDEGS
T1 sequence (Q12809 whole entry): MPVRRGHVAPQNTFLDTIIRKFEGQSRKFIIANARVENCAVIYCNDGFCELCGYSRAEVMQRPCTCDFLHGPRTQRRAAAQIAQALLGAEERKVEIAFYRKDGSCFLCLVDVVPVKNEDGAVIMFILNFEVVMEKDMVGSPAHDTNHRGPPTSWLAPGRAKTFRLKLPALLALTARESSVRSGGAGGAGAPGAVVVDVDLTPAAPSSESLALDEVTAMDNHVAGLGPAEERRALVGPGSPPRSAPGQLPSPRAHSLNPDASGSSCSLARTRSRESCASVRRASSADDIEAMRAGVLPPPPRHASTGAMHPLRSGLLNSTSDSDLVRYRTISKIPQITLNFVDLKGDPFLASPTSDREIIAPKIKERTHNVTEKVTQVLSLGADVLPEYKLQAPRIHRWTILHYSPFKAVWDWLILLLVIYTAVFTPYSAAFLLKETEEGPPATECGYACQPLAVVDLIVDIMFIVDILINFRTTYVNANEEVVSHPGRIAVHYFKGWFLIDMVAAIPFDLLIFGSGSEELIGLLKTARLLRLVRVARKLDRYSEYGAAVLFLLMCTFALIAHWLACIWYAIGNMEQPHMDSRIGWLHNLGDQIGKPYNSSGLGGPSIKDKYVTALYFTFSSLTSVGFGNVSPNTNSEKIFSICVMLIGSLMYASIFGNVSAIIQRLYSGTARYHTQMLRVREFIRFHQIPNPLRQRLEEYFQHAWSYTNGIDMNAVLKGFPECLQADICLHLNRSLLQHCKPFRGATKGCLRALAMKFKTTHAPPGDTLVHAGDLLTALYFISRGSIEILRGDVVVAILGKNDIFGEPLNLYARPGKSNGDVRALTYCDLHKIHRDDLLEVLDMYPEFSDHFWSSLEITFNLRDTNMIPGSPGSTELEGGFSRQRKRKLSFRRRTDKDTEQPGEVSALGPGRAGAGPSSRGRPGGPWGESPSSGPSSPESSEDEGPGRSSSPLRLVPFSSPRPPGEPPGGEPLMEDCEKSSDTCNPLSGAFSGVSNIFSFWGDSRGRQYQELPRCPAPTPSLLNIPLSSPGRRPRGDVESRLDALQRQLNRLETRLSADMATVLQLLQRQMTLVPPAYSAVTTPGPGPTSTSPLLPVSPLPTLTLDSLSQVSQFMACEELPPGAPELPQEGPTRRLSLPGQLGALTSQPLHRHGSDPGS
T2 sequence (P22460 whole entry): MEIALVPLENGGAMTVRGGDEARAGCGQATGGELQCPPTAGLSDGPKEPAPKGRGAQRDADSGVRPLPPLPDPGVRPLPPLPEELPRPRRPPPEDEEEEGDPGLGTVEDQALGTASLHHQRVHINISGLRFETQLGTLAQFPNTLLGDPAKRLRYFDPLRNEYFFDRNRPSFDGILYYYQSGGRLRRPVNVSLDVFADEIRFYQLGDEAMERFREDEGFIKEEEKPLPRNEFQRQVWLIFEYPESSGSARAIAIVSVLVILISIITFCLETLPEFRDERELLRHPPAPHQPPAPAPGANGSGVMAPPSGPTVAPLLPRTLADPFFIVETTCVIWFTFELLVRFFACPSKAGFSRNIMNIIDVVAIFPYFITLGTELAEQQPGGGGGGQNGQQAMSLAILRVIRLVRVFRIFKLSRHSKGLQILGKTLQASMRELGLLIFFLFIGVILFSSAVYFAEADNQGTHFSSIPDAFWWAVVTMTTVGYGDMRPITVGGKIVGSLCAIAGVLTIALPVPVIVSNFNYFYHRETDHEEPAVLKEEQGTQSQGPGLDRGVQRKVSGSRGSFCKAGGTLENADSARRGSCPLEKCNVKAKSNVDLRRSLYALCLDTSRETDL
Sequence of Sodium channel protein type 5 subunit alpha (Q14524 whole entry): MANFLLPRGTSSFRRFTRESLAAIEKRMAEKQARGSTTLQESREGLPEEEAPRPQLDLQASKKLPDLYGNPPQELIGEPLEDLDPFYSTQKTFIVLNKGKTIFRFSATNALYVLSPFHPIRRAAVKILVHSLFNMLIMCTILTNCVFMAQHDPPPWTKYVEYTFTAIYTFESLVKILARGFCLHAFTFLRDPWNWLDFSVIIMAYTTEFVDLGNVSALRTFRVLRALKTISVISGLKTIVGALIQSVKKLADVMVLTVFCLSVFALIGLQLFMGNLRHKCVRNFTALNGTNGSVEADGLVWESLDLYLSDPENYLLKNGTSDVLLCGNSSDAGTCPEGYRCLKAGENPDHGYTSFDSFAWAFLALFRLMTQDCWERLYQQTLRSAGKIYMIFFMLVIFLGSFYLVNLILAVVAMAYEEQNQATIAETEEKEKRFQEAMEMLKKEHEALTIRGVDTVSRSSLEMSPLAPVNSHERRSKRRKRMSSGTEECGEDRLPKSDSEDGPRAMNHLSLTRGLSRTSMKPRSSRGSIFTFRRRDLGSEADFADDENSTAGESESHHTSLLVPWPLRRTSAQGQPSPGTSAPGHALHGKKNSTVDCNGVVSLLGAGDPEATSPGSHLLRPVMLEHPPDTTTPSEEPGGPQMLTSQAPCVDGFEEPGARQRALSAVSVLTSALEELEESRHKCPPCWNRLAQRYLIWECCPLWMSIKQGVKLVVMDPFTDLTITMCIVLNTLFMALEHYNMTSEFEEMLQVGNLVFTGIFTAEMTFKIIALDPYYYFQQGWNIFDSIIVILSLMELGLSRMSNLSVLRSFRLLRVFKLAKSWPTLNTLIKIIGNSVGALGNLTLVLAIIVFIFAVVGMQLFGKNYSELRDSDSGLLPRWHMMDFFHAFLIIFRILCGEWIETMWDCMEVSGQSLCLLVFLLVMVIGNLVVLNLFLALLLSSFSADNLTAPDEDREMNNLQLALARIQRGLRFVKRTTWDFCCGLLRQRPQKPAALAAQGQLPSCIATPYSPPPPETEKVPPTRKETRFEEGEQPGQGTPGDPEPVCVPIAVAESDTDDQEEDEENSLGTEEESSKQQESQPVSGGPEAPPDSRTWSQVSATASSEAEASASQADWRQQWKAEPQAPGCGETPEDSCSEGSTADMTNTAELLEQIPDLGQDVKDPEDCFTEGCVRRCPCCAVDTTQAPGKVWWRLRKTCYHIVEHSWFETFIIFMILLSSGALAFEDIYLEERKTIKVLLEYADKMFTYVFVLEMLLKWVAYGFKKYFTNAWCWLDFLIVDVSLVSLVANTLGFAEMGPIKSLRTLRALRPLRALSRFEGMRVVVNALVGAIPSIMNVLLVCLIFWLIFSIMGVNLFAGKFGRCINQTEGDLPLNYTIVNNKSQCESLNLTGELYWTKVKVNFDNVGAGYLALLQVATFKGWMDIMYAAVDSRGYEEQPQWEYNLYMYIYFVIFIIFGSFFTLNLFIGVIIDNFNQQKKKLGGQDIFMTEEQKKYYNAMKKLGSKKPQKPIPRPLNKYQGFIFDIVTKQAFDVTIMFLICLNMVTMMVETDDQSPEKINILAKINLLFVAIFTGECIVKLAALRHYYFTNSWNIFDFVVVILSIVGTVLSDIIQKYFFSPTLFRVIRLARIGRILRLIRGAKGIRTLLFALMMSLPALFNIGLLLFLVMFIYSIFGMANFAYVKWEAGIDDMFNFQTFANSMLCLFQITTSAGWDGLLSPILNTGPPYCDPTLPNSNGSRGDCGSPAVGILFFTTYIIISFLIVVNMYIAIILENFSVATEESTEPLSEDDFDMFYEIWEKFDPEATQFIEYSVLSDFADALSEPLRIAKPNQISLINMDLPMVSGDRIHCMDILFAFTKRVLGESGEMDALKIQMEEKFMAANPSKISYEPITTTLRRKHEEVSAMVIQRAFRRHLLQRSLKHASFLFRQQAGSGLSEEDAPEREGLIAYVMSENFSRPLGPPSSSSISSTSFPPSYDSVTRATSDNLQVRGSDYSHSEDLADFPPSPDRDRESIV

Compound: O[C@@H](c1cccnc1-c1cc(Cl)cc(Cl)c1)C(c1cccnc1)c1cccnc1
- IC50 [1]: > 30 µM
- clearance [2]: 3.7 mL/min/kg
- Ratio [3]: 30
- Activity [4]: Non-Toxic
- Activity [5]: Active
- inhibition (INH) [6]: Not Active
- Ratio IC50 [7]: >3000
- bioavailability [8]: 21%
- EC10 [9]: 0.014 µM
- bioavailability [10]: 93%
- Activity [11]: Non-Toxic
- fraction unbound [12]: 0.21
- half-life [13]: 1 h
- IC50 [14]: 0.011 µM
- bioavailability [15]: 34%
- IC50 [16]: 0.029 to 2.92 µM
- half-life [17]: 2.6 h
- clearance [18]: 14.3 mL/min/kg
- clearance [19]: 16.7 mL/min/kg
- Stability [20]: Unstable
- Activity [21]: Non-Toxic
- Vd [22]: 0.81 L/kg
- Selectivity Index [23]: >1800
- Activity [24]: Non-Toxic
- Activity [25]: > 25 µM
- fraction unbound [26]: 0.16
- inhibition at 30 µM [27]: 7%
- half-life [28]: 1.6 h
- Activity [29]: Non-Toxic
- Vd [30]: 0.99 L/kg
- Vd [31]: 1.59 L/kg
- IC50 [32]: 128 µM
- fraction unbound [33]: 0.08
- IC50 [34]: 8.3 µM
- Activity [35]: Non-Toxic
- Activity [36]: Non-Toxic
- inhibition at 10 µM [37]: 5.7%
